Assay results from article PMC11502443 (Frontiers in Pharmacology, 2024).
Substitutions are numbered along the chain they refer to.

How the values were obtained:
[1] = molecular target: T1, human WT GIP receptor (E354) (Homo sapiens, UniProt P48546); experiment: CREB phosphorylation (AlphaLISA pCREB Ser133), WT GIP receptor; assay type: cell-based; conditions: for Emax: read-out: Emax pCREB
T1 construct: host or cells: Cos7 cells, transient transfection with PEI, pcDNA3.1+
T1 sequence (P48546 22-466): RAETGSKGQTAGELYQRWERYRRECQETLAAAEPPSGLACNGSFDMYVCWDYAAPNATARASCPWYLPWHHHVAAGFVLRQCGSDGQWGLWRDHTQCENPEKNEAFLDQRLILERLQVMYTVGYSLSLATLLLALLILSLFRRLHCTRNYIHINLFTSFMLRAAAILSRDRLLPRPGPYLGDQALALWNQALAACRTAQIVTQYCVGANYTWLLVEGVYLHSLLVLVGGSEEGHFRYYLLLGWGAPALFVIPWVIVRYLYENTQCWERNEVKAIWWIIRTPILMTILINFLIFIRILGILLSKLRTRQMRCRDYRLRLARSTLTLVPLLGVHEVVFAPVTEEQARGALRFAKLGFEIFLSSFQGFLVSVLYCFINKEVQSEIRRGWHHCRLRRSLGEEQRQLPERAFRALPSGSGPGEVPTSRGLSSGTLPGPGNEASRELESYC
Protocol: (§1) Using a PCR thermocycler (Applied Biosystems PCR system 9700, ThermoFisher, CA, United States), the DNA was initially denatured at 95°C for 2 min, followed by 25 cycles of 98°C for 30 s, 66°C for 15 s and 72°C for 3.5 min. Following the PCR reaction, 1 μL Dpn1 was added, and the DNA transformed into XL.10-gold Ultracompetent E. coli (Agilent Technologies, CA, United States). Plasmid DNA was purified using the NucleoBond Xtra Maxi kit (Macherey-Nagel, Germany) and sequenced prior to use (Centre for Genomics, Proteomics and Metabolomics, University of Auckland).
(§2) Cos7 cells were cultured and transfected as previously described ([Tasma et al., 2022]; [Bower et al., 2018]). Briefly, Cos7 cells were cultured in DMEM supplemented with 8% fetal bovine serum (FBS) in a 37°C humidified incubator with 5% CO2 and seeded into 96-well SpectraPlates at a density of 20,000 cells per well 24 h prior to transfection. […] All plasmid sequences were verified prior to use.
(§3) Phosphorylated (p) Protein Kinase B (AKT), extracellular signal-regulated kinase 1/2 (ERK1/2) and CREB were detected using the AlphaLISA SureFire Ultra pAKT (Ser473), AlphaLISA SureFire Ultra pERK1/2 (Thr202/Tyr204) or AlphaLISA SureFire Ultra pCREB (Ser133) assay kit (PerkinElmer) as per the manufacturer’s protocol. Briefly, Cos7 cells were serum-starved in assay media (DMEM +0.1% BSA) for 4 h at 37°C with 5% CO2 prior to peptide stimulation. Peptides were serially diluted in assay media, and cells were incubated with assay media alone or each concentration of peptide for 15 min. FBS (50%) in pERK1/2 and pAKT or 50 μM forskolin in pCREB assays were used as positive controls. Media was then aspirated, and the cells were lysed in 40 μL of the kit lysis buffer, followed by shaking for 10–15 min at room temperature. Ten microliters of cell lysate was transferred to a white 384-well OptiPlate. […] Plates were read on an Envision plate reader (PerkinElmer). […]
(§4) All data were plotted and analyzed using GraphPad Prism 8.0 (GraphPad Software Inc.). […]

[2] = molecular target: T1, human WT GIP receptor (E354); experiment: AKT phosphorylation (AlphaLISA pAKT Ser473), WT GIP receptor; assay type: cell-based; conditions: for Emax: read-out: Emax pAKT
Protocol: as §1, §2, §3, §4

[3] = molecular target: T2, human GIP receptor E354Q variant (Homo sapiens, UniProt P48546, E354Q); experiment: AKT phosphorylation (AlphaLISA pAKT Ser473), E354Q GIP receptor; assay type: cell-based; conditions: for Emax: read-out: Emax pAKT
T2 construct: expressed in transfected cells; host or cells: Cos7 cells, transient transfection with PEI, pcDNA3.1+; mutant plasmid made in house from the purchased WT construct
T2 sequence (P48546 22-466 E354Q): T1 sequence (P48546 22-466) with E333Q
Protocol: as §1, §2, §3, §4

[4] = molecular target: T2, human GIP receptor E354Q variant; experiment: ERK1/2 phosphorylation (AlphaLISA pERK1/2 Thr202/Tyr204), E354Q GIP receptor; assay type: cell-based; conditions: read-out: Emax pERK1/2
Protocol: as §1
(§5) Cos7 cells were cultured and transfected as previously described ([Tasma et al., 2022]; [Bower et al., 2018]). Briefly, Cos7 cells were cultured in DMEM supplemented with 8% fetal bovine serum (FBS) in a 37°C humidified incubator with 5% CO2 and seeded into 96-well SpectraPlates at a density of 20,000 cells per well 24 h prior to transfection. […]
(§6) Phosphorylated (p) Protein Kinase B (AKT), extracellular signal-regulated kinase 1/2 (ERK1/2) and CREB were detected using the AlphaLISA SureFire Ultra pAKT (Ser473), AlphaLISA SureFire Ultra pERK1/2 (Thr202/Tyr204) or AlphaLISA SureFire Ultra pCREB (Ser133) assay kit (PerkinElmer) as per the manufacturer’s protocol. […] Plates were read on an Envision plate reader (PerkinElmer). […]
as §4

[5] = molecular target: T1, human WT GIP receptor (E354); experiment: IP1 accumulation (IP-one Gq kit), WT GIP receptor; assay type: cell-based
Protocol: as §1
Cos7 cells were cultured and transfected as previously described ([Tasma et al., 2022]; [Bower et al., 2018]). […]
The IP-one Gq assay kit (Cisbio, PerkinElmer) was used to quantify accumulated myo-inositol-1-phosphate (IP1), a by-product of IP3 produced after receptor-mediated Gαq activation in Cos7 cells, as previously described ([Tasma et al., 2022]; [Bower et al., 2018]). […] Samples were processed as previously described and read using an Envision plate reader (PerkinElmer). IP1 concentrations were determined from a standard curve generated in duplicate.
as §4

[6] = molecular target: T2, human GIP receptor E354Q variant; experiment: CREB phosphorylation (AlphaLISA pCREB Ser133), E354Q GIP receptor; assay type: cell-based; conditions: read-out: Emax pCREB
Protocol: as §1, §5, §6, §4

[7] = molecular target: T1, human WT GIP receptor (E354); experiment: ERK1/2 phosphorylation (AlphaLISA pERK1/2 Thr202/Tyr204), WT GIP receptor; assay type: cell-based; conditions: read-out: Emax pERK1/2
Protocol: as §1, §5, §6, §4

albumin = conditions: cited from earlier work
Text: Understanding the signalling of GIP receptors is essential to elucidating their physiological effects and exploiting this receptor as a drug target. The GIP receptor is often reported to couple to Gαs alone ([Oduori et al., 2020b]). […] This indicates potential coupling to Gαq, as IP1 is a stable by-product of IP3 ([Garbison et al., 2004]). The induction of cAMP accumulation by the endogenous GIP agonists was similar to previous studies ([Hansen et al., 2016]; [Yuliantie et al., 2021]). Tirzep ...

Row | Structure (SMILES) | EC50 ([1]; WT, Cos7, 15 min, DMEM + 0.1% BSA, mean ± s.e.m., n = 3, read-out: pEC50 pCREB (converted)) [nM] | Emax [1] [%] | EC50 ([2]; WT, Cos7, 15 min, DMEM + 0.1% BSA, mean ± s.e.m., n = 3) [nM] | Emax [2] [%] | EC50 ([3]; E354Q, Cos7, 15 min, DMEM + 0.1% BSA, mean ± s.e.m., n = 3) [nM] | Emax [3] [%] | Emax [4] [%] | EC50 ([5]; WT, Cos7, 90 min, 37°C, DMEM + 0.1% BSA + 1% 10 mM LiCl, mean ± s.e.m., n = 5, read-out: pEC50 IP1 (converted)) [nM] | Emax [6] [%] | Emax [7] [%] | albumin binding (albumin) | Emax ([5]; read-out: Emax IP1, % of maximal response) [%]
1 | CC[C@H](C)[C@H](NC(=O)[C@H](CO)NC(=O)[C@H](Cc1ccc(O)cc1)NC(=O)[C@H](CC(=O)O)NC(=O)[C@H](CO)NC(=O)[C@@H](NC(=O)[C@H](Cc1ccccc1)NC(=O)[C@@H](NC(=O)CNC(=O)[C@H](CCC(=O)O)NC(=O)[C@H](C)NC(=O)[C@@H](N)Cc1ccc(O)cc1)[C@@H](C)O)[C@@H](C)CC)C(=O)N[C@@H](C)C(=O)N[C@@H](CCSC)C(=O)N[C@@H](CC(=O)O)C(=O)N[C@@H](CCCCN)C(=O)N[C@H](C(=O)N[C@@H](Cc1c[nH]cn1)C(=O)N[C@@H](CCC(N)=O)C(=O)N[C@@H](CCC(N)=O)C(=O)N[C@@H](CC(=O)O)C(=O)N[C@@H](Cc1ccccc1)C(=O)N[C@H](C(=O)N[C@@H](CC(N)=O)C(=O)N[C@@H](Cc1c[nH]c2ccccc12)C(=O)N[C@@H](CC(C)C)C(=O)N[C@@H](CC(C)C)C(=O)N[C@@H](C)C(=O)N[C@@H](CCC(N)=O)C(=O)N[C@@H](CCCCN)C(N)=O)C(C)C)[C@@H](C)CC [GIP(1-30)NH2] | 0.0631 | 117 ± 8.75 | 1.48 | 97.1 ± 4.56 | 0.813 | 50.9 ± 1.72 | 73.9 ± 9.75 | 1.62 | 70.7 ± 32.9 | 117 ± 3.91 |  | 
2 | CC[C@H](C)[C@H](NC(=O)[C@H](CC(C)C)NC(=O)[C@H](Cc1c[nH]c2ccccc12)NC(=O)[C@H](CCC(N)=O)NC(=O)[C@@H](NC(=O)[C@H](Cc1ccccc1)NC(=O)[C@H](C)NC(=O)[C@H](CCCCNC(=O)COCCOCCNC(=O)COCCOCCNC(=O)CC[C@H](NC(=O)CCCCCCCCCCCCCCCCCCC(=O)O)C(=O)O)NC(=O)[C@H](CCC(N)=O)NC(=O)[C@H](C)NC(=O)[C@@H](NC(=O)[C@H](CCCCN)NC(=O)[C@H](CC(=O)O)NC(=O)[C@H](CC(C)C)NC(=O)C(C)(C)NC(=O)[C@@H](NC(=O)[C@H](CO)NC(=O)[C@H](Cc1ccc(O)cc1)NC(=O)[C@H](CC(=O)O)NC(=O)[C@H](CO)NC(=O)[C@@H](NC(=O)[C@H](Cc1ccccc1)NC(=O)[C@@H](NC(=O)CNC(=O)[C@H](CCC(=O)O)NC(=O)C(C)(C)NC(=O)[C@@H](N)Cc1ccc(O)cc1)[C@@H](C)O)[C@@H](C)O)[C@@H](C)CC)[C@@H](C)CC)C(C)C)C(=O)N[C@@H](C)C(=O)NCC(=O)NCC(=O)N1CCC[C@H]1C(=O)N[C@@H](CO)C(=O)N[C@@H](CO)C(=O)NCC(=O)N[C@@H](C)C(=O)N1CCC[C@H]1C(=O)N1CCC[C@H]1C(=O)N1CCC[C@H]1C(=O)N[C@@H](CO)C(N)=O [Tirzepatide] |  | 91.5 ± 10.9 |  | 87.7 ± 2.6 |  | 51.9 ± 8.95 | 80.2 ± 17.3 |  | 59.4 ± 34.8 |  | binds to albumin | 54.9
